± gives the standard deviation of the averaged measurements.
Experiments:
Assay in all cases: level (log10 ratio to DMSO vehicle control); higher = higher biomarker level / cell amount than vehicle control
Conditions in all cases: in DMSO
[1] = compound: OCCCCC(F)(F)C(F)(F)C(F)(F)C(F)(F)F [4:4 Fluorotelomer alcohol]
Procedure: (§1)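 BioMAP Diversity Plus panel of 12 human primary cell co-culture systems (3C, 4H, LPS, SAg, BT, BF4T, BE3C, CASM3C, HDF3CGF, KF3CT, MyoF, Mphg). Compounds were added 1 h before stimulation and left for 24 h (MyoF 48 h; BT 72 h for soluble read-outs or 6 d for IgG). Biomarkers were read by ELISA, cytotoxicity by SRB, PBMC viability and proliferation by Alamar Blue. Each well value was divided by the mean of 8 DMSO control wells on the same plate and log10 transformed; duplicate blinded samples were tested at 4 concentrations.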

[2] = compound: O=C(O)C(F)(F)C(F)(F)C(F)(F)C(F)(F)C(F)(F)C(F)(F)C(F)(F)F [Ammonium perfluorooctanoate]
Procedure: as §1

[3] = compound: O=S(=O)(O)CCC(F)(F)C(F)(F)C(F)(F)C(F)(F)F [4:2 Fluorotelomer sulfonic acid]
Procedure: as §1

[4] = compound: O=C(Cl)C(F)(F)C(F)(F)C(F)(F)C(=O)Cl [Hexafluoroglutaryl chloride]
Procedure: as §1

[5] = compound: C=CC(=O)OCCC(F)(F)C(F)(F)C(F)(F)C(F)(F)C(F)(F)C(F)(F)C(F)(F)C(F)(F)F [8:2 Fluorotelomer acrylate]
Procedure: as §1

[6] = compound: O=P(O)(O)CCC(F)(F)C(F)(F)C(F)(F)C(F)(F)C(F)(F)C(F)(F)F [2-(Perfluorohexyl)ethylphosphonic acid]
Procedure: as §1

[7] = compound: O=C(CC(=O)C(F)(F)C(F)(F)C(F)(F)F)c1cccs1 [(Perfluorobutyryl)-2-thenoylmethane]
Procedure: as §1

Row | Test System | level (log10) ([1]; 6700 nM) | level (log10) ([1]; 20000 nM) | level (log10) ([1]; 60000 nM) | level (log10) ([2]; 6700 nM) | level (log10) ([2]; 20000 nM) | level (log10) ([2]; 60000 nM) | level (log10) ([3]; 6700 nM) | level (log10) ([3]; 20000 nM) | level (log10) ([3]; 60000 nM) | level (log10) ([4]; 6700 nM) | level (log10) ([4]; 20000 nM) | level (log10) ([4]; 60000 nM) | level (log10) ([5]; 6700 nM) | level (log10) ([5]; 20000 nM) | level (log10) ([5]; 60000 nM) | level (log10) ([6]; 6700 nM) | level (log10) ([6]; 20000 nM) | level (log10) ([6]; 60000 nM) | level (log10) ([7]; 6700 nM) | level (log10) ([7]; 20000 nM)
1 | 4H:CCL2/MCP-1 | 0.0135 ± 0.011 | -0.016 ± 0.023 | 0.023 ± 0.055 | -0.01 ± 0.0057 | -0.026 ± 0.0085 | -0.0475 ± 0.039 | 0.014 ± 0.0014 | -0.0085 ± 0.028 | 0.019 ± 0.0071 | -0.022 ± 0.0042 | -0.015 | -0.015 | -0.025 ± 0.018 | -0.016 ± 0.023 | 0.012 ± 0.051 | -0.0295 ± 0.0092 | -0.031 ± 0.025 | -0.0215 ± 0.054 | -0.0825 ± 0.0078 | -0.249 ± 0.0042
2 | LPS:sTNF-alpha | 0.0195 ± 0.11 | 0.0205 ± 0.12 | 0.0155 ± 0.14 | 0.004 ± 0.0085 | 0.001 ± 0.0057 | -0.0135 ± 0.00071 | -0.0105 ± 0.011 | -0.007 ± 0.0014 | -0.0065 ± 0.0035 | 0.046 ± 0.023 | 0.033 ± 0.0085 | 0.0465 ± 0.012 | -0.0245 ± 0.025 | -0.029 ± 0.027 | -0.0175 ± 0.012 | 0.008 ± 0.0085 | 0.0105 ± 0.026 | 0.007 ± 0.0042 | 0.0225 ± 0.036 | 0.119 ± 0.029
3 | 4H:CD62P/P-selectin | 0.023 ± 0.0028 | 0.019 ± 0.013 | 0.0115 ± 0.005 | 0.0195 ± 0.012 | 0.043 ± 0.088 | 0.0515 ± 0.036 | -0.045 ± 0.075 | -0.0285 ± 0.059 | 0.005 ± 0.073 | -0.012 ± 0.033 | 0.0045 ± 0.026 | -0.0045 ± 0.043 | -0.018 ± 0.0028 | -0.092 ± 0.0028 | -0.047 ± 0.064 | 0.022 ± 0.0042 | -0.01 ± 0.017 | -0.0585 ± 0.021 | -0.0205 ± 0.037 | -0.41 ± 0.032
4 | BF4T:MMP-9 | 0.0045 ± 0.013 | -0.0015 ± 0.013 | 0.0275 ± 0.06 | 0.017 ± 0.023 | 0.028 ± 0.0057 | 0.0375 ± 0.025 | -0.023 ± 0.023 | -0.02 ± 0.0028 | 0.0205 ± 0.033 | -0.0075 ± 0.025 | -0.0125 ± 0.025 | 0.005 ± 0.0071 | -0.0255 ± 0.0064 | -0.0215 ± 0.012 | -0.021 ± 0.042 | -0.0155 ± 0.00071 | -0.0015 ± 0.0078 | 0.018 ± 0.035 | -0.0225 ± 0.0021 | -0.146 ± 0.039
5 | 3C:CXCL9/MIG | 0.0075 ± 0.0035 | -0.01 ± 0.0014 | 0.007 ± 0.0028 | -0.006 ± 0.02 | 0.002 ± 0.0099 | 0.0285 ± 0.013 | -0.0005 ± 0.005 | 0.005 ± 0.011 | 0.001 ± 0.014 | -0.0035 ± 0.005 | -0.004 ± 0.0014 | 0.002 ± 0.0085 | -0.0135 ± 0.011 | -0.005 ± 0.0042 | 0.01 ± 0.018 | -0.004 ± 0.0071 | -0.003 ± 0.0014 | 0.01 ± 0.025 | -0.0205 ± 0.012 | -0.0255 ± 0.0021
6 | SAg:CD40 | 0.01 ± 0.016 | 0.014 ± 0.0042 | 0.005 ± 0.0042 | -0.008 ± 0.011 | -0.022 | -0.0695 ± 0.011 | -0.006 ± 0.0071 | 0.0015 ± 0.019 | -0.0225 ± 0.039 | 0.0105 ± 0.042 | 0.0085 ± 0.0021 | -0.0085 ± 0.043 | -0.0085 ± 0.00071 | -0.0075 ± 0.0021 | -0.01 ± 0.017 | 0.007 ± 0.0028 | 0.0015 ± 0.00071 | -0.026 ± 0.0099 | -0.27 ± 0.11 | -0.412 ± 0.093
7 | BT:Secreted IgG | 0.01 ± 0.024 | 0.0045 ± 0.021 | -0.0055 ± 0.037 | 0.032 ± 0.017 | 0.0155 ± 0.037 | -0.019 ± 0.033 | 0.006 ± 0.052 | 0.021 ± 0.061 | 0.0055 ± 0.054 | 0.012 ± 0.024 | 0.0205 ± 0.012 | 0.0115 ± 0.0035 | -0.0205 ± 0.012 | -0.041 ± 0.031 | -0.11 ± 0.13 | 0.0125 ± 0.0021 | 0.002 ± 0.0099 | -0.046 ± 0.047 | -0.009 ± 0.018 | -0.855 ± 0.016
8 | LPS:CD40 | -0.0175 ± 0.063 | -0.0095 ± 0.028 | -0.042 ± 0.027 | 0.024 ± 0.025 | 0.0265 ± 0.088 | -0.117 ± 0.093 | 0.0175 ± 0.079 | 0.0505 ± 0.043 | 0.032 ± 0.071 | -0.011 ± 0.057 | 0.0315 ± 0.032 | -0.0375 ± 0.063 | -0.008 ± 0.017 | -0.0285 ± 0.036 | -0.031 ± 0.016 | 0.002 ± 0.062 | -0.012 ± 0.018 | 0.0205 ± 0.028 | -0.0095 ± 0.071 | -0.0805 ± 0.083
9 | BF4T:Keratin 8/18 | 0.012 ± 0.0028 | -0.001 ± 0.0014 | 0.009 ± 0.034 | 0.009 ± 0.028 | 0.013 ± 0.0057 | 0.017 ± 0.014 | 0.0015 ± 0.005 | -0.0195 ± 0.025 | 0.017 ± 0.024 | -0.0245 ± 0.053 | -0.018 ± 0.03 | -0.0345 ± 0.035 | -0.014 ± 0.0042 | -0.0045 ± 0.00071 | 0.0115 ± 0.015 | -0.0045 ± 0.015 | -0.0065 ± 0.012 | 0.0105 ± 0.022 | -0.0735 ± 0.0035 | -0.127 ± 0.016
10 | BF4T:tPA | -0.0095 ± 0.011 | -0.01 | 0.0205 ± 0.036 | -0.0185 ± 0.0064 | -0.041 ± 0.018 | -0.0565 ± 0.0021 | -0.0295 ± 0.023 | -0.0295 ± 0.03 | 0.0055 ± 0.06 | 0.0095 ± 0.0078 | -0.019 ± 0.0099 | -0.0095 ± 0.019 | -0.046 ± 0.013 | -0.0635 ± 0.023 | -0.0465 ± 0.012 | -0.059 ± 0.0014 | -0.067 ± 0.0057 | -0.0615 ± 0.064 | -0.122 ± 0.02 | -0.068 ± 0.018
11 | 3C:SRB | -0.0075 ± 0.025 | 0.004 ± 0.025 | 0.0095 ± 0.032 | -0.0015 ± 0.012 | -0.014 ± 0.0042 | -0.05 ± 0.0099 | -0.0135 ± 0.011 | -0.0145 ± 0.0078 | -0.0255 ± 0.025 | -0.0025 ± 0.0035 | 0.008 ± 0.013 | 0.013 ± 0.0071 | -0.001 ± 0.03 | 0.008 ± 0.018 | 0.0075 ± 0.005 | 0.0015 ± 0.032 | 0.0085 ± 0.015 | -0.006 ± 0.028 | -0.0035 ± 0.028 | -0.139 ± 0.021
12 | 3C:Proliferation | -0.018 ± 0.031 | 0.0115 ± 0.011 | -0.009 ± 0.054 | -0.001 ± 0.034 | 0.015 ± 0.0042 | -0.0635 ± 0.08 | 0.0045 ± 0.083 | 0.0155 ± 0.013 | 0.003 ± 0.0085 | -0.0045 ± 0.026 | 0.006 ± 0.018 | -0.0345 ± 0.036 | -0.035 ± 0.037 | -0.009 ± 0.048 | -0.0155 ± 0.005 | -0.066 ± 0.057 | -0.035 ± 0.017 | -0.101 ± 0.081 | -0.276 ± 0.04 | -0.891 ± 0.063
13 | SAg:Proliferation | -0.026 ± 0.014 | -0.0185 ± 0.0035 | -0.005 ± 0.047 | 0.002 ± 0.0085 | 0.0175 ± 0.029 | 0.044 ± 0.044 | -0.0615 ± 0.015 | 0.009 ± 0.054 | -0.017 ± 0.041 | 0.0165 ± 0.026 | 0.0255 ± 0.013 | 0.001 ± 0.013 | 0.0035 ± 0.022 | -0.0625 ± 0.0064 | -0.0055 ± 0.043 | 0.0125 ± 0.0078 | -0.0165 ± 0.019 | -0.036 ± 0.03 | -0.298 ± 0.019 | -0.585
14 | BE3C:IL-1alpha | 0.0255 ± 0.00071 | 0.0095 ± 0.011 | 0.0155 ± 0.021 | -0.008 ± 0.024 | -0.019 ± 0.021 | -0.028 ± 0.011 | -0.011 ± 0.0014 | -0.011 ± 0.013 | 0.0045 ± 0.0092 | -0.014 ± 0.025 | -0.017 ± 0.0042 | 0.0025 ± 0.005 | -0.007 ± 0.021 | -0.015 ± 0.0042 | 0.0165 ± 0.029 | -0.01 ± 0.0014 | -0.0245 ± 0.005 | -0.007 ± 0.023 | -0.0165 ± 0.00071 | -0.19 ± 0.005
15 | BF4T:SRB | -0.0105 ± 0.0092 | -0.0085 ± 0.0064 | -0.002 ± 0.011 | -0.0085 ± 0.005 | -0.002 ± 0.0042 | 0.0005 ± 0.016 | -0.012 ± 0.0042 | -0.0085 ± 0.0064 | -0.0075 ± 0.0064 | -0.015 ± 0.0099 | -0.0115 ± 0.0035 | -0.0195 ± 0.0035 | -0.004 ± 0.0028 | -0.011 ± 0.013 | 0.0055 ± 0.0092 | -0.007 ± 0.0042 | -0.011 ± 0.0014 | -0.0055 ± 0.016 | -0.023 ± 0.0085 | -0.057 ± 0.0042

Source: the supplement of paper PMC10331698
